Experimental data from patent US7118895B2, “Process for producing aglycon by using diglycosidase and flavor-improved food containing the aglycon and converting agent to be used in the process” (Amano Enzyme Inc., priority 2000, dated 2006).

System: Crude diglycosidase
Test: Examination of substrate concentration in the conversion into isoflavone aglycons by diglycosidase using soybean materials;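 further: percent of the isoflavone family total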
Assay type: biochemical, Penicillium multicolor IAM7153
Conditions: concentrated soybean protein
Protocol: Into 20 mM acetate buffer of pH 4.0 was suspended 0.1 g, 0.25 g, 0.5 g, 1.0 g, or 1.5 g of each of various soybean materials (roasted soy flour (manufactured by Fuji Shokuryo K.K.), soymilk (manufactured by Gitoh Shokuhin K.K.), defatted soybean (manufactured by Fuji Seiyu K.K.), concentrated soybean protein (manufactured by Fuji Seiyu K.K.)). The pH of the suspension was measured and the liquid volume was adjusted to 4.5 mL while the pH was adjusted to 4.0 with 1N hydrochloric acid. An enzyme solution wherein diglycosidase activity of crude diglycosidase was adjusted to 1.88 AU/mL was added thereto in an amount of 0.5 mL, whereby the final liquid volume was 5.0 mL. Namely, the ratio of the soybean material in the reaction mixture was 2%, 5%, 10%, 20%, or 30% (w/v). The whole was reacted at 55° C. under shaking. To 5 mL of the reaction mixture was added 7 mL of ethanol after 0, 1, 3, and 6 hours of the reaction. After ultrasonication, the mixture was thoroughly mixed. It was subjected to centrifugal separation at 2,000 rpm and room temperature for 5 minutes. Then, […] of the supernatant was placed in a 1.5 mL microtube and was subjected to centrifugal separation at 15,000 rpm and 4° C. for 10 minutes. The supernatant was filtered through a filter and each sample was suitably diluted by a factor of 1 to 6 depending on the substrate concentration. Fifty μL of the diluted solution was analyzed by HLPC (Tables 27 to 38).

Measured: Decomposition efficiency: ratio of each glycoside/aglycon within its isoflavone family

O=C(O)CC(=O)OC[C@H]1O[C@@H](Oc2ccc3c(=O)c(-c4ccc(O)cc4)coc3c2)[C@H](O)[C@@H](O)[C@@H]1O [malonydaidzin]
not detected: substrate concentration 2%, heat treatment of enzyme no, reaction time 0 h | substrate concentration 2%, heat treatment of enzyme no, reaction time 1 h | substrate concentration 2%, heat treatment of enzyme no, reaction time 3 h | substrate concentration 2%, heat treatment of enzyme no, reaction time 6 h | substrate concentration 2%, heat treatment of enzyme yes, reaction time 6 h | substrate concentration 5%, heat treatment of enzyme no, reaction time 0 h | substrate concentration 5%, heat treatment of enzyme no, reaction time 1 h | substrate concentration 5%, heat treatment of enzyme no, reaction time 3 h | substrate concentration 5%, heat treatment of enzyme no, reaction time 6 h | substrate concentration 5%, heat treatment of enzyme yes, reaction time 6 h | substrate concentration 10%, heat treatment of enzyme no, reaction time 0 h | substrate concentration 10%, heat treatment of enzyme no, reaction time 1 h | substrate concentration 10%, heat treatment of enzyme no, reaction time 3 h | substrate concentration 10%, heat treatment of enzyme no, reaction time 6 h | substrate concentration 10%, heat treatment of enzyme yes, reaction time 6 h | substrate concentration 20%, heat treatment of enzyme no, reaction time 0 h | substrate concentration 20%, heat treatment of enzyme no, reaction time 1 h | substrate concentration 20%, heat treatment of enzyme no, reaction time 3 h | substrate concentration 20%, heat treatment of enzyme no, reaction time 6 h | substrate concentration 20%, heat treatment of enzyme yes, reaction time 6 h | substrate concentration 30%, heat treatment of enzyme no, reaction time 0 h | substrate concentration 30%, heat treatment of enzyme no, reaction time 1 h | substrate concentration 30%, heat treatment of enzyme no, reaction time 3 h | substrate concentration 30%, heat treatment of enzyme no, reaction time 6 h | substrate concentration 30%, heat treatment of enzyme yes, reaction time 6 h
